# Data from patent US20150265644A1, “THERAPEUTIC METHODS AND COMPOSITIONS FOR TREATING DIABETES UTILIZING DITERPENOID COMPOUNDS” (Orient Europharma Co., Ltd., priority 2014, published 2015).
# What was measured:
# [1] = Plasma glucose after single intraperitoneal injection in mice; format: in vivo; settings: 60 min; for dose giving significant decrease of plasma glucose level: single i.p. dose; for plasma glucose level: 0.1-10 mgkg^−1 i.p., dose-dependent
# Method: (§1) The 4-week-old male ICR mice were purchased from the Animal Center of the College of Medicine, National Taiwan University (Taipei, Taiwan) with delicate humane care. This animal study was conducted by following the University ethical guidelines and the ‘Guide for the Care and Use of Laboratory Animals’ published by the US National Institutes of Health (NIH publication no. 85-23, revised 1996). The animal experiments were approved by the Institutional Animal Care and Use Committee (IACUC) of the National Taiwan University (IACUC No. 20110073). Animals were housed in a room at the constant temperature, 22±1° C., with 12 hours light and dark cycles.
# (§2) After three days of acclimatization, the mice had free access to a standard rodent chow (normal mice), a standard rodent chow after single 250 mgkg^−1 streptozotocin (STZ) intraperitoneal injection (TIDM mice), and a fat-rich chow diet and fructose-sweetened water (T2DM mice) for 4 weeks. The induction of Type 1 DM was assessed and confirmed when the mice had plasma glucose levels ≧350 mgdL^−1, accompanied with polyuria, hyperphagia and decreased body weight. The induction Type 2 DM in the mice was assessed by measuring fasting plasma glucose levels and confirmed when plasma glucose level was ≧150 mgdL^−1 after the 4-week induction. The animals were assigned randomly into three groups, with seven animals in each group. In group I, the mice were treated with vehicle, 2% DMSO in normal saline, as the negative control. In group II, the mice were intraperitoneally treated with borapetoside A (0.1-10 mgkg^−1). In […], the mice received intraperitoneally metformin (300 mgkg^−1; Sigma Chemical Co., St. Louis, Mo., U.S.A.) or insulin (0.5 IUkg^−1; Insulin Actrapid® HM; Novo Nordisk, Denmark). In the acute study, mice under anesthesia received a single intraperitoneal administration of borapetoside A, negative control, or positive control. In the subacute study, mice received intraperitoneal administrations of borapetoside A, vehicle, or insulin twice a day for seven days.
# (§3) Blood samples were collected from the orbital vascular plexus of the mice under anesthesia. Blood samples were then centrifuged at 13000 rpm for 5 min, and the plasma samples were collected and kept on ice prior to the assay. The plasma glucose concentration was measured by Glucose Kit Reagent (Biosystems S.A., Barcelona, Spain) following the manufacturer's instructions, and the insulin levels were estimated using mouse insulin ELISA kit (Mercodia AB, Uppsala, Sweden).
# [2] = Plasma insulin level before and after treatment in mice; format: in vivo
# Method: as §1, §2, §3
# [3] = Intraperitoneal glucose tolerance test; format: in vivo, mice
# Method: as §2, §3
# The mice were maintained under anesthesia throughout the procedure. Glucose (2.0 gkg^−1) was administered intraperitoneally. Blood samples were collected from the orbital vascular plexus at 0, 30, 60, 120 min. The concentrations of the plasma glucose were measured, and the values of AUC were calculated accordingly.
# soleus muscle = assay: Glycogen content in soleus muscle in vivo; parameters: species or system mice; settings: 10 mgkg^−1 i.p., 60 minutes
# Method: The mice were injected with borapetoside A (10 mgkg^−1, interperitoneal) for 60 minutes or insulin (0.5 IUkg^−1, interperitoneal) for 30 minutes. After the treatment, the anesthetic mice were sacrificed by cervical dislocation to collect the soleus muscle and liver. About 40 mg of each sample was dissolved in 1 mol/L KOH at 75° C. for 30 min. The dissolved homogenate was neutralized by glacial acetic acid and then incubated overnight in acetate buffer (0.3 mol/L sodium acetate, pH 4.8) containing amyloglucosidase (Sigma, St. Louis, Mo.). The mixture was then neutralized with 1 mol/L NaOH to stop the reaction. The glycogen contents in the tissue samples were determined as μg of glucose per mg of tissue (wet weight).
# GLUT2 = assay: Western blot of liver, GLUT2 expression; format: in vivo; settings: mice with type 1 DM, 10 mgkg^−1 i.p. twice a day for 7 days
# Method: After three days of acclimatization, the mice had free access to a standard rodent chow (normal mice), a standard rodent chow after single 250 mgkg^−1 streptozotocin (STZ) intraperitoneal injection (TIDM mice), and a fat-rich chow diet and fructose-sweetened water (T2DM mice) for 4 weeks. The induction of Type 1 DM was assessed and confirmed when the mice had plasma glucose levels ≧350 mgdL^−1, accompanied with polyuria, hyperphagia and decreased body weight. The induction Type 2 DM in the mice was assessed by measuring fasting plasma glucose levels and confirmed when plasma glucose level was ≧150 mgdL^−1 after the 4-week induction. […]
# Western blot analysis was carried out by known methods with a slight modification. […] After centrifuging the homogenates at 10,000 g for 30 minutes, the protein concentrations were determined by using a BCA Protein Assay Kit (Pierce Biotechnology, Rockford, Ill.). […] The membranes were analysed by using the antibodies against phospho-insulin receptor β (IRβ) (Tyr^1345), phospho-Akt (Ser^473), phosphor-AS160 (Thr^642), AS160 (Cell Signaling Technology, Beverly, Mass.), IRβ, Akt, β-Actin (Santa Cruz Biotechnology, Santa Cruz, Calif.), GLUT2 (Abcam, Cambridge, UK), and PEPCK (a gift from Professor D K Granner), respectively. […] The intensity of each band was quantified with ImageQuant.
structure (smiles),measurement,setting,value
C[C@@]12C[C@@H](c3ccoc3)OC(=O)[C@@H]1C[C@@H]1OC(=O)[C@@]3(O)[C@@H](O[C@@H]4O[C@H](CO)[C@@H](O)[C@H](O)[C@H]4O)CC[C@@H]2[C@@]13C [borapetoside A],dose giving significant decrease of plasma glucose level,[1]; mice with type 2 DM,higher than 0.3 mgkg^−1
same,plasma glucose level,[1]; normal mice,lowered
same,dose giving significant decrease of plasma glucose level,[1]; normal mice,≥ 1 mgkg^−1
same,plasma glucose level,[1]; type 1 DM mice,lowered
same,plasma glucose level,[1]; type 2 DM mice,lowered
same,Plasma insulin,"[2]; T1DM mice, 0.1 mg kg^−1, after-treatment",22.7 ± 0.2 pmol/L
same,Plasma insulin,"[2]; T1DM mice, 0.1 mg kg^−1, before-treatment",22.9 ± 0.1 pmol/L
same,Plasma insulin,"[2]; T1DM mice, 0.3 mg kg^−1, after-treatment",22.7 ± 0.3 pmol/L
same,Plasma insulin,"[2]; T1DM mice, 0.3 mg kg^−1, before-treatment",22.9 ± 0.1 pmol/L
same,Plasma insulin,"[2]; T1DM mice, 1 mg kg^−1, after-treatment",23.0 ± 0.2 pmol/L
same,Plasma insulin,"[2]; T1DM mice, 1 mg kg^−1, before-treatment",23.1 ± 0.2 pmol/L
same,Plasma insulin,"[2]; T1DM mice, 3 mg kg^−1, after-treatment",23.0 ± 0.0 pmol/L
same,Plasma insulin,"[2]; T1DM mice, 3 mg kg^−1, before-treatment",23.1 ± 0.2 pmol/L
same,Plasma insulin,"[2]; T1DM mice, 10 mg kg^−1, after-treatment",23.0 ± 0.1 pmol/L
same,Plasma insulin,"[2]; T1DM mice, 10 mg kg^−1, before-treatment",23.1 ± 0.1 pmol/L
same,Plasma insulin,"[2]; T2DM mice, 0.1 mg kg^−1, after-treatment",134.5 ± 9.3 pmol/L
same,Plasma insulin,"[2]; T2DM mice, 0.1 mg kg^−1, before-treatment",140.5 ± 4.1 pmol/L
same,Plasma insulin,"[2]; T2DM mice, 0.3 mg kg^−1, after-treatment",149.0 ± 9.5 pmol/L
same,Plasma insulin,"[2]; T2DM mice, 0.3 mg kg^−1, before-treatment",133.0 ± 4.2 pmol/L
same,Plasma insulin,"[2]; T2DM mice, 1 mg kg^−1, after-treatment",123.7 ± 9.6 pmol/L
same,Plasma insulin,"[2]; T2DM mice, 1 mg kg^−1, before-treatment",126.8 ± 5.7 pmol/L
same,Plasma insulin,"[2]; T2DM mice, 3 mg kg^−1, after-treatment",184.3 ± 14.6 pmol/L
same,Plasma insulin,"[2]; T2DM mice, 3 mg kg^−1, before-treatment",138.3 ± 3.6 pmol/L
same,Plasma insulin,"[2]; T2DM mice, 10 mg kg^−1, after-treatment",205.3 ± 22.2 pmol/L
same,Plasma insulin,"[2]; T2DM mice, 10 mg kg^−1, before-treatment",134.9 ± 3.5 pmol/L
same,Plasma insulin,"[2]; normal mice, 0.1 mg kg^−1, after-treatment",68.3 ± 4.4 pmol/L
same,Plasma insulin,"[2]; normal mice, 0.1 mg kg^−1, before-treatment",61.0 ± 4.6 pmol/L
same,Plasma insulin,"[2]; normal mice, 0.3 mg kg^−1, after-treatment",129.4 ± 22.0 pmol/L
same,Plasma insulin,"[2]; normal mice, 0.3 mg kg^−1, before-treatment",63.4 ± 3.9 pmol/L
same,Plasma insulin,"[2]; normal mice, 1 mg kg^−1, after-treatment",118.8 ± 10.1 pmol/L
same,Plasma insulin,"[2]; normal mice, 1 mg kg^−1, before-treatment",66.1 ± 5.4 pmol/L
same,Plasma insulin,"[2]; normal mice, 3 mg kg^−1, after-treatment",121.2 ± 14.2 pmol/L
same,Plasma insulin,"[2]; normal mice, 3 mg kg^−1, before-treatment",64.4 ± 3.6 pmol/L
same,Plasma insulin,"[2]; normal mice, 10 mg kg^−1, after-treatment",108.2 ± 2.9 pmol/L
same,Plasma insulin,"[2]; normal mice, 10 mg kg^−1, before-treatment",68.9 ± 1.3 pmol/L
same,increase of plasma glucose level at 30 min,"[3]; 0.1, 1, and 10 mgkg^−1, compared to the vehicle group, normal and type 2 DM mice",significantly suppressed
same,"area under the curve (AUC) of plasma glucose, % of vehicle control","[3]; normal mice, 0.1 mgkg^−1",78.8±3.0%
same,"area under the curve (AUC) of plasma glucose, % of vehicle control","[3]; normal mice, 1 mgkg^−1",69.9±7.1%
same,"area under the curve (AUC) of plasma glucose, % of vehicle control","[3]; normal mice, 10 mgkg^−1",68.91±3.5%
same,"area under the curve (AUC) of plasma glucose, % of vehicle control","[3]; type 2 DM bearing mice, 0.1 mgkg^−1",74.9±4.5%
same,"area under the curve (AUC) of plasma glucose, % of vehicle control","[3]; type 2 DM bearing mice, 1 mgkg^−1",71.1±3.2%
same,"area under the curve (AUC) of plasma glucose, % of vehicle control","[3]; type 2 DM bearing mice, 10 mgkg^−1",68.9±1.9%
same,"glycogen content in soleus muscle, % of vehicle control",soleus muscle; mice with type 1 DM,155.6±8.6%
same,"glycogen content in soleus muscle, % of vehicle control",soleus muscle; mice with type 2 DM,171.8±12.0%
same,"glycogen content in soleus muscle, % of vehicle control",soleus muscle; normal mice,116.5±4.2%
same,expression of GLUT2 in liver,GLUT2,increased
